According to patent US20140243415A1, “COMPOUNDS INHIBITING GALECTIN-1 EXPRESSION, CANCER CELL PROLIFERATION, INVASION, AND TUMORIGENESIS” (ONCOETHIX SA, priority 2011, published 2014):

Key:
SQ20B cells [1] = assay: Matrigel invasion assay; format: cell-based, human; conditions: for invasion of SQ20B cells, agent alone: 48 h, 1 g/ml galectin-1, 1 μg/ml semaphorin-3A, 10 μM UO126, 3 μM OTX-008
Protocol: (§1) FIG. 5. Modulation of the galectin-1/semaphorin-3A/neuropilin system in SQ20B cells. A—Effects of galectin-1 (Gall), semaphorin-3A (Sema3A), lactose, with or without four different concentrations of OTX-008 on SQ20B growth at day 6. Embedded figure: Proliferation assay of SQ20B and SQ-shGAL1. B—In vitro matrigel invasion assay of SQ20B exposed to […] galectin-1, 1 μg/ml semaphorin-3A, 200 ng/ml lactose or 10 μM UO126 with or without 3 μM OTX-008. Embedded figure: In vitro matrigel invasion assay of SQ20B and SQ-shGAL1. Invasion was quantified after 48 h by counting the average number of invaded cells.
8 μm membranes were coated with Matrigel (50 μg). The inserts were placed within a 24-well chamber containing 0.6 ml of RPMI 1640 medium with 20% fetal bovine serum as chemoattractant. 10^5 cells were seeded into the inserts suspended in 0.3 ml of serum-free RPMI. After incubation for 48 h at 37° C., the upper surface of the filter was scraped to remove non-invasive cells. Invasive cells were fixed and stained with a Diff Quik detection Kit (Dade Behring, Paris, France). For quantification, the average number of invading cells per field was assessed by counting 9 random fields under a light microscope (400×).
(§2) Galectin-1 may form extracellular lattices counteracting the inhibitory properties of semaphorin-3A on neuropilin-1, eventually leading to the modulation of the vascular endothelial growth factor (VEGFR) and platelet derived growth factor (PDGFR) receptors, fibronectin, and laminin activity SQ20B cells expressed significant mRNA and protein levels of semaphorin-3A and neuropilin-1, PDGFRa&(, VEGF A-D, and VEGFR1-3 (Supplementary FIG. 2A). Thus, SQ20B cells were selected to evaluate the effects of OTX-008 on galectin-1/semaphorin-3A interactions. No difference between SQ20B cells growing in plastic or fibronectin- and laminin-coated plates. […] Galectin-1 and semaphorin-3A induced invasion was inhibited by OTX-008 mimicking the effects of lactose in this model.

SQ20B cells [2] = assay: In vitro growth inhibition assay; format: cell-based, human; conditions: growth at day 6
Protocol: as §1
For proliferation assay, cells were seeded in 96-well tissue culture plates at a density of 1.5×10^3 cells/well. MTT assay was conducted daily to determine the number of viable cells in untreated control and treated group. Growth inhibition curves were plotted as a percentage of cells for each experimental condition.
as §2

galectin-1 = molecular target: T1, galectin-1 (Homo sapiens, UniProt P09382); assay: Western blot of galectin-1 in SQ20B cells; format: cell-based; conditions: Bortezomib 10 nM with 3 μM OTX-008, 48 h
T1 construct: Western Blot of galectin-1 on SQ20B cells treated with 3 μM OTX-008 for 24 h, 48 h and 72 h; endogenous in cells; host or cells: SQ20B (ATCC)
T1 sequence (P09382 whole entry): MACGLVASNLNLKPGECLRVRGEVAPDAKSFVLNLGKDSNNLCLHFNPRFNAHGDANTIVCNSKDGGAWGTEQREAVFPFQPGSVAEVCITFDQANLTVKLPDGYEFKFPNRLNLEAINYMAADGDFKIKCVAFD
Protocol: FIG. 3. Effects of OTX-008 on galectin-1 expression and localization. A—Western Blot of galectin-1 on SQ20B cells treated with 3 μM OTX-008 for 24 h, 48 h and 72 h. B and C—Immunofluorescence of galectin-1 on SQ20B cells treated with 3 μM OTX-008 for 24 and 48 h. B—OTX-008 treatment decreases galectin-1 immunostaining in SQ20B cells. C—Galectin-1 translocates into the nucleus after OTX-008 exposure. D—Western Blot of p-AKTser473, AKT, p-S6, p-ERK1/2, ERK and p-PKCα in SQ20B cells treated with 3 μM OTX-008 for 10 min, 1 h, 2 h, 5 h and 24 h.
FIG. 4. OTX-008-induced galectin-1 oxydation and degradation by the proteosome system A—Western Blot of galectin-1 on SQ20B cells treated 48 h with 10 μM N-acetylcysteine (NAC), 55 μM β-mercaptoethanol (βME), 1 mM Tempol and 10 μM co-enzyme Q10 (Q10) with or without 3 μM OTX-008. B—Western Blot of galectin-1 on SQ20B cells treated 48 h with 3 μM OTX-008, pretreated 2 h with proteasome inhibitor Bortezomib (10 nM) and then treated 48 h with 3 μM OTX-008 (BTZ—OTX-008) or treated 48 h with 10 nM Bortezomib+3 μM OTX-008 (BTZ+OTX-008).
Cells were lysed in buffer containing 50 mM HEPES (pH 7.6), 150 mM NaCl, 1% Triton X-100, 2 mM sodium vanadate, 100 mM NaF, and 0.4 mg/ml phenylmethylsulfonyl fluoride. Equal amounts of protein (30 μg/lane) were subjected to SDS-PAGE and transferred to nitrocellulose membranes. […]

[3] = tested on: panel of human cancer cell lines; assay: MTT cell cytotoxicity assay, cell line panel; format: cell-based; conditions: cultured cancer cells
Protocol: Cell survival was determined using the MTT assay (3-[4,5-dimethylthiazol-2-yl]-2,5-diphenyltetrazolium bromide; Sigma, Saint-Quentin Fallavier, France). The conversion of yellow water-soluble tetrazolium MTT into purple insoluble formazan is catalyzed by mitochondrial dehydrogenases and used to estimate the number of viable cells. In brief, cells were seeded in 96-well tissue culture plates at a density of 2×10^3 cells/well. After 72 h drug exposure and 48 h wash-out, cells were incubated with 0.4 mg/ml MTT for 4 hours at 37° C. After incubation, the supernatant was discarded, insoluble formazan precipitates were dissolved in 0.1 ml of DMSO and the absorbance was measured at 560 nm by use of a microplate reader (Thermo, France). […] IC50's were determined as the halves of maximal inhibitory drug concentration for each cell line.
The antiproliferative effects of OTX-008 and anginex were assessed using MTT assay in a panel of human cancer cell lines of human origins expressing various levels of Lgals-1 mRNA and galectin-1 protein expressions (Supplementary Table 1). […] No correlation between mRNA expressions of galectin-2, galectin-3, and galectin-8 as well as semaphorin-3A, semaphorin-3B, neuropilin-1, VEGFR1-3, VEGFA-D, and PDGFRa&P3 and sensitivity to OTX-008 were detected in the panel.

B16 melanoma = conditions: syngeneic mouse B16 melanoma model; cited from earlier work
[4] = tested on: human ovarian carcinoma MA148 xenografts; conditions: cited from earlier work
cdc2 (tyrosine 15) = assay: Western blot of phosphorylated cdc2 in SQ20B; format: cell-based, human; conditions: pretreated 2 h with UO126 then OTX-008 72 hours
Protocol: Cells were lysed in buffer containing 50 mM HEPES (pH 7.6), 150 mM NaCl, 1% Triton X-100, 2 mM sodium vanadate, 100 mM NaF, and 0.4 mg/ml phenylmethylsulfonyl fluoride. Equal amounts of protein (30 μg/lane) were subjected to SDS-PAGE and transferred to nitrocellulose membranes. Membranes were blocked with 5% milk in 0.05% Tween 20/phosphate-buffered saline and then incubated with the primary antibody overnight. Membranes were then washed and incubated with the secondary antibody conjugated to horseradish peroxidase. Bands were visualized by using the enhanced chemiluminescence Western blotting detection system. Densitometric analysis was performed under conditions that yielded a linear response. The following antibodies were used: anti-p-cdc2 (tyr15), anti-p-wee1 (ser642), anti-p-p44/42 MAPK (thr202/tyr204), anti-p44/42, anti-p-AKT (ser473), anti-AKT, anti-p-S6 (ser235/236) (Cell Signaling, Saint Quentin Yvelines, France), anti-p-PKCα (ser657) (BD Biosciences, Le-Pont-de-Claix, France) and anti-galectin-1 (Abcam, Cambridge, Mass., USA). All antibodies were used at a 1:1000 dilution.
To study the mechanism of OTX-008-induced inhibition of cell proliferation, the effect of OTX-008 on cell cycle in SQ20B cells was examined (FIG. 5B). […] Activation of cdc2 (cdk1) by de-phosphorylation of tyrosine 15 is required for G2/M transition. […]

Molecule: OC[C@H]1O[C@@H](O[C@H]2[C@H](O)[C@@H](O)C(O)O[C@@H]2CO)[C@H](O)[C@@H](O)[C@H]1O (stereo partly drawn) [lactose, reference compound]
- invasion, lactose combined with OTX-008 (SQ20B cells [1]; SQ20B, 200 ng/ml lactose with 3 μM OTX-008): prevents the inhibition of invasion induced by OTX-008
- SQ20B cell proliferation, exogenous agent alone (SQ20B cells [2]): significant inhibition of cellular proliferation

Molecule: CC(C)C[C@H](NC(=O)[C@H](Cc1ccccc1)NC(=O)c1cnccn1)B(O)O [bortezomib, reference compound]
- effect of proteasome inhibition on OTX-008-induced galectin-1 decrease (galectin-1): counteracts the inhibitory effects of OTX-008 on galectin-1 expression

Molecule: galectin-1: Recombinant galectin-1 purchased from R&D Systems
- invasion of SQ20B cells, agent alone (SQ20B cells [1]): enhance invasion
- SQ20B cell proliferation, exogenous agent alone (SQ20B cells [2]): had not effects

Molecule: anginex
- antiproliferative effects (MTT) [3]: limited effects
- antitumor activity (B16 melanoma): antitumor activity
- antitumor activity [4]: antitumor activity

Molecule: N#CC(=C(/N)Sc1ccccc1N)/C(C#N)=C(/N)Sc1ccccc1N [UO126, reference compound]
- invasion of SQ20B cells, agent alone (SQ20B cells [1]): neither impact cellular invasion alone
- OTX-008-mediated cdc2 phosphorylation after UO126 pretreatment (cdc2 (tyrosine 15)): inhibited the increase of cdc2 phosphorylation

B1: semaphorin-3A: Recombinant semaphorin-3A purchased from R&D Systems (protein, UniProt Q14563 21-771, looked up)
Semaphorin-3A: NYQNGKNNVPRLKLSYKEMLESNNVITFNGLANSSSYHTFLLDEERSRLYVGAKDHIFSFDLVNIKDFQKIVWPVSYTRRDECKWAGKDILKECANFIKVLKAYNQTHLYACGTGAFHPICTYIEIGHHPEDNIFKLENSHFENGRGKSPYDPKLLTASLLIDGELYSGTAADFMGRDFAIFRTLGHHHPIRTEQHDSRWLNDPKFISAHLISESDNPEDDKVYFFFRENAIDGEHSGKATHARIGQICKNDFGGHRSLVNKWTTFLKARLICSVPGPNGIDTHFDELQDVFLMNFKDPKNPVVYGVFTTSSNIFKGSAVCMYSMSDVRRVFLGPYAHRDGPNYQWVPYQGRVPYPRPGTCPSKTFGGFDSTKDLPDDVITFARSHPAMYNPVFPMNNRPIVIKTDVNYQFTQIVVDRVDAEDGQYDVMFIGTDVGTVLKVVSIPKETWYDLEEVLLEEMTVFREPTAISAMELSTKQQQLYIGSTAGVAQLPLHRCDIYGKACAECCLARDPYCAWDGSACSRYFPTAKRRTRRQDIRNGDPLTHCSDLHHDNHHGHSPEERIIYGVENSSTFLECSPKSQRALVYWQFQRRNEERKEEIRVDDHIIRTDQGLLLRSLQQKDSGNYLCHAVEHGFIQTLLKVTLEVIDTEHLEELLHKDDDGDGSKTKEMSNSMTPSQKVWYRDFMQLINHPNLNTMDEFCEQVWKRDRKQRRQRPGHTPGNSNKWKHLQENKKGRNRRTHEFERAPRSV
- invasion of SQ20B cells, agent alone (SQ20B cells [1]): enhance invasion
- SQ20B cell proliferation, exogenous agent alone (SQ20B cells [2]): concentration-dependent inhibition of cellular proliferation
